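Dose response: 5 concentrations. Exposure: 48 h. Format: 96-well plates. Endpoint: linear interpolation; highest concentration if not reached. GI50 = concentration required for 50% inhibition of growth. TGI is the concentration that stops growth completely.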
Assays:
Test in all cases: growth of human tumour cells (NCI), 48 h
OVCAR-3 ovarian = tested on: OVCAR-3 ovarian
NCI-H460 lung = tested on: NCI-H460 lung
UO-31 renal = tested on: UO-31 renal
SF-268 CNS = tested on: SF-268 CNS
KM12 colon = tested on: KM12 colon
CAKI-1 renal = tested on: CAKI-1 renal
MDA-MB-435 = tested on: MDA-MB-435
SN12C renal = tested on: SN12C renal
SK-MEL-2 melanoma = tested on: SK-MEL-2 melanoma
ACHN renal = tested on: ACHN renal
A549 NSCLC = tested on: A549 NSCLC
A498 renal = tested on: A498 renal
UACC-62 melanoma = tested on: UACC-62 melanoma
U251 CNS = tested on: U251 CNS
OVCAR-4 ovarian = tested on: OVCAR-4 ovarian
COLO 205 colon = tested on: COLO 205 colon
MCF7 breast = tested on: MCF7 breast
SNB-75 CNS = tested on: SNB-75 CNS
NCI-H226 lung = tested on: NCI-H226 lung
NCI-H23 lung = tested on: NCI-H23 lung
HOP-62 NSCLC = tested on: HOP-62 NSCLC
OVCAR-5 ovarian = tested on: OVCAR-5 ovarian
SK-MEL-5 melanoma = tested on: SK-MEL-5 melanoma
MALME-3M melanoma = tested on: MALME-3M melanoma
SW-620 colon = tested on: SW-620 colon
SR leukemia = tested on: SR leukemia
RXF 393 renal = tested on: RXF 393 renal
HCT-15 colon = tested on: HCT-15 colon
SF-295 CNS = tested on: SF-295 CNS
SNB-19 CNS = tested on: SNB-19 CNS
NCI-H522 lung = tested on: NCI-H522 lung
NCI/ADR-RES ovarian = tested on: NCI/ADR-RES ovarian
UACC-257 melanoma = tested on: UACC-257 melanoma
DU-145 prostate = tested on: DU-145 prostate
786-0 renal = tested on: 786-0 renal
HT29 colon = tested on: HT29 colon
PC-3 prostate = tested on: PC-3 prostate
HCT-116 colon = tested on: HCT-116 colon
T-47D breast = tested on: T-47D breast
MOLT-4 leukemia = tested on: MOLT-4 leukemia
HOP-92 NSCLC = tested on: HOP-92 NSCLC
LOX IMVI melanoma = tested on: LOX IMVI melanoma
HL-60(TB) leukemia = tested on: HL-60(TB) leukemia
IGROV1 ovarian = tested on: IGROV1 ovarian
K-562 leukemia = tested on: K-562 leukemia
HS 578T breast = tested on: HS 578T breast
SK-OV-3 ovarian = tested on: SK-OV-3 ovarian
OVCAR-8 ovarian = tested on: OVCAR-8 ovarian
SF-539 CNS = tested on: SF-539 CNS
CCRF-CEM leukemia = tested on: CCRF-CEM leukemia
MDA-MB-231 breast = tested on: MDA-MB-231 breast
RPMI-8226 leukemia = tested on: RPMI-8226 leukemia
M14 melanoma = tested on: M14 melanoma
SK-MEL-28 melanoma = tested on: SK-MEL-28 melanoma
HCC-2998 colon = tested on: HCC-2998 colon
TK-10 renal = tested on: TK-10 renal
BT-549 breast = tested on: BT-549 breast

CC(C)Nc1ncc2cc(Oc3ccc(F)cc3F)c(=O)n(C)c2n1
GI50 (OVCAR-3 ovarian): > 25 µM
TGI (OVCAR-3 ovarian): > 25 µM
GI50 (NCI-H460 lung): > 25 µM
TGI (NCI-H460 lung): > 25 µM
GI50 (UO-31 renal): 5.17 µM
TGI (UO-31 renal): > 13.4 µM
GI50 (SF-268 CNS): > 23.7 µM
TGI (SF-268 CNS): > 25 µM
GI50 (KM12 colon): > 25 µM
TGI (KM12 colon): > 25 µM
GI50 (CAKI-1 renal): > 25 µM
TGI (CAKI-1 renal): > 25 µM
GI50 (MDA-MB-435): > 25 µM
TGI (MDA-MB-435): > 25 µM
GI50 (SN12C renal): 21.4 µM
TGI (SN12C renal): > 25 µM
GI50 (SK-MEL-2 melanoma): > 25 µM
TGI (SK-MEL-2 melanoma): > 25 µM
GI50 (ACHN renal): > 25 µM
TGI (ACHN renal): > 25 µM
GI50 (A549 NSCLC): > 25 µM
TGI (A549 NSCLC): > 25 µM
GI50 (A498 renal): 5.39 µM
TGI (A498 renal): > 25 µM
GI50 (UACC-62 melanoma): > 25 µM
TGI (UACC-62 melanoma): > 25 µM
GI50 (U251 CNS): > 25 µM
TGI (U251 CNS): > 25 µM
GI50 (OVCAR-4 ovarian): > 25 µM
TGI (OVCAR-4 ovarian): > 25 µM
GI50 (COLO 205 colon): > 25 µM
TGI (COLO 205 colon): > 25 µM
GI50 (MCF7 breast): > 25 µM
TGI (MCF7 breast): > 25 µM
GI50 (SNB-75 CNS): > 25 µM
TGI (SNB-75 CNS): > 25 µM
GI50 (NCI-H226 lung): > 25 µM
TGI (NCI-H226 lung): > 25 µM
GI50 (NCI-H23 lung): > 25 µM
TGI (NCI-H23 lung): > 25 µM
GI50 (HOP-62 NSCLC): > 25 µM
TGI (HOP-62 NSCLC): > 25 µM
GI50 (OVCAR-5 ovarian): > 25 µM
TGI (OVCAR-5 ovarian): > 25 µM
GI50 (SK-MEL-5 melanoma): > 25 µM
TGI (SK-MEL-5 melanoma): > 25 µM
GI50 (MALME-3M melanoma): > 25 µM
TGI (MALME-3M melanoma): > 25 µM
GI50 (SW-620 colon): > 25 µM
TGI (SW-620 colon): > 25 µM
GI50 (SR leukemia): > 25 µM
TGI (SR leukemia): > 25 µM
GI50 (RXF 393 renal): 12.7 µM
TGI (RXF 393 renal): > 25 µM
GI50 (HCT-15 colon): > 25 µM
TGI (HCT-15 colon): > 25 µM
GI50 (SF-295 CNS): > 25 µM
TGI (SF-295 CNS): > 25 µM
GI50 (SNB-19 CNS): > 25 µM
TGI (SNB-19 CNS): > 25 µM
GI50 (NCI-H522 lung): > 25 µM
TGI (NCI-H522 lung): > 25 µM
GI50 (NCI/ADR-RES ovarian): > 25 µM
TGI (NCI/ADR-RES ovarian): > 25 µM
GI50 (UACC-257 melanoma): > 25 µM
TGI (UACC-257 melanoma): > 25 µM
GI50 (DU-145 prostate): > 25 µM
TGI (DU-145 prostate): > 25 µM
GI50 (786-0 renal): > 25 µM
TGI (786-0 renal): > 25 µM
GI50 (HT29 colon): > 25 µM
TGI (HT29 colon): > 25 µM
GI50 (PC-3 prostate): > 25 µM
TGI (PC-3 prostate): > 25 µM
GI50 (HCT-116 colon): > 25 µM
TGI (HCT-116 colon): > 25 µM
GI50 (T-47D breast): > 25 µM
TGI (T-47D breast): > 25 µM
GI50 (MOLT-4 leukemia): > 25 µM
TGI (MOLT-4 leukemia): > 25 µM
GI50 (HOP-92 NSCLC): 2.89 µM
TGI (HOP-92 NSCLC): 21.6 µM
GI50 (LOX IMVI melanoma): > 25 µM
TGI (LOX IMVI melanoma): > 25 µM
GI50 (HL-60(TB) leukemia): > 25 µM
TGI (HL-60(TB) leukemia): > 25 µM
GI50 (IGROV1 ovarian): > 25 µM
TGI (IGROV1 ovarian): > 25 µM
GI50 (K-562 leukemia): > 25 µM
TGI (K-562 leukemia): > 25 µM
GI50 (HS 578T breast): 11.6 µM
TGI (HS 578T breast): > 25 µM
GI50 (SK-OV-3 ovarian): > 25 µM
TGI (SK-OV-3 ovarian): > 25 µM
GI50 (OVCAR-8 ovarian): > 25 µM
TGI (OVCAR-8 ovarian): > 25 µM
GI50 (SF-539 CNS): > 25 µM
TGI (SF-539 CNS): > 25 µM
GI50 (CCRF-CEM leukemia): > 25 µM
TGI (CCRF-CEM leukemia): > 25 µM
GI50 (MDA-MB-231 breast): 21 µM
TGI (MDA-MB-231 breast): > 25 µM
GI50 (RPMI-8226 leukemia): > 25 µM
TGI (RPMI-8226 leukemia): > 25 µM
GI50 (M14 melanoma): > 25 µM
TGI (M14 melanoma): > 25 µM
GI50 (SK-MEL-28 melanoma): > 25 µM
TGI (SK-MEL-28 melanoma): > 25 µM
GI50 (HCC-2998 colon): > 25 µM
TGI (HCC-2998 colon): > 25 µM
GI50 (TK-10 renal): 15.8 µM
TGI (TK-10 renal): > 25 µM
GI50 (BT-549 breast): > 25 µM
TGI (BT-549 breast): > 25 µM
